Experiments:
ovine COX-2 = target: T1, ovine COX-2 (Ovis aries, UniProt P79208); test: In vitro inhibition of ovine cyclooxygenase-2
T1 sequence (P79208 17-603): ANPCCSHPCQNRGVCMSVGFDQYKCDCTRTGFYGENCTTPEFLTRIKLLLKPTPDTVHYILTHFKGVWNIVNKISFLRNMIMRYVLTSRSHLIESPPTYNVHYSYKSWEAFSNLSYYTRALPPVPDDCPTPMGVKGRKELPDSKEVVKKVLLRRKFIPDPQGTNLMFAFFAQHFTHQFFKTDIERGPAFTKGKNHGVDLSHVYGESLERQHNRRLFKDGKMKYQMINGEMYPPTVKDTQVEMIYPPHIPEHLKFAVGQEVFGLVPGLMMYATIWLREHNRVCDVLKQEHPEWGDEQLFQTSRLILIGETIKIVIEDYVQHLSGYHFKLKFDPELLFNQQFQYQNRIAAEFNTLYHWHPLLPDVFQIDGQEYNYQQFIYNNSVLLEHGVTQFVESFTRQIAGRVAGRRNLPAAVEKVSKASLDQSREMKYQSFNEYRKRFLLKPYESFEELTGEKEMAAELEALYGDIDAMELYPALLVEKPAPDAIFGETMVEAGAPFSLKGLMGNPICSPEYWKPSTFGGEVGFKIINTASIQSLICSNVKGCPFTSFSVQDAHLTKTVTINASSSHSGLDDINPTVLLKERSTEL
Method: In order to prevent this in the in vitro experiment used for testing COX inhibition activity of the new molecules, a co-substrate like N,N,N′,N′-tetramethyl-p-phenylenediamine (TMPD) is included, as it undergoes co-oxidation by PGG2. The oxidized TMPD has a maximum absorbance at 590 nm. […] To ensure maximum enzyme activity, heme is added to the reaction mixture during the in vitro assay for ovine COX-2 inhibition and COX-1 inhibition [63].
The in vitro COX-2 inhibitory activity was assessed using arachidonic acid (AA) as a substrate and N,N,N′,N′-tetramethyl-p-phenylenediamine (TMPD) as a co-substrate in a Tris-HCl buffer (pH 8.5), following the reported method [89]. To the test tube, 10 µL of the compound dissolved in DMSO was added to a mixture containing 730 µL of Tris-HCl buffer (pH 8.5), 50 µL of heme, 10 µL of COX-2 enzyme, and 100 µL of TMPD. The absorbance was measured at 590 nm. […] A blank determination was conducted as a negative control.

[1] = In vitro determination of NO release with Griess reagent; conditions: 100 μM, L-cysteine, pH 7.4, 37 °C, 60 min
Excerpt: This assay evaluates the ability of nitrate esters to release nitric oxide (NO). First, sodium nitroprusside (SNP) reacts with the thiol compound, cysteine, which serves as a reducing agent (Scheme 5). The thiol donates electrons, facilitating the breakdown of the nitroprusside complex. Afterwards, the reaction leads to the formation of intermediate complexes, such as nitrosothiol species and the decomposition of these intermediates results in the release of nitric oxide (NO). According to the literature, measurements are conducted both in the presence and absence of the thiol agent, cysteine. No significant difference was observed between the two experimental conditions, and the results were reproducible. Sodium nitroprusside (SNP) was used as the reference compound [65].
The compounds (from a 10 mM stock solution in DMSO, final concentration 100 μM) are added (20 μL) to each test tube. Then, 2 mL of phosphate buffer solution (pH 7.4) is added. L-cysteine, used as the thiol agent, is added to the mixture at a final concentration of 0.5 mM. The solution is incubated at 37 °C for 60 min, after which 1 mL is removed and mixed with 250 μL of Griess reagent (4 g sulfanilamide, 0.2 g N-(1-naphthyl)-ethylenediamine dihydrochloride, and 10 mL of H3PO4 solution, final volume adjusted to 100 mL). The mixture is allowed to stand for 10 min at room temperature, and the absorbance of the produced compound is measured at 540 nm. Sodium nitroprusside (SNP) is used as the reference compound. The results are presented as the release of NO2^− (% NO2^− (mol/mol)) induced by the compounds in the presence of L-cysteine (Table 6).

[2] = target: T2, soybean lipoxygenase isoenzyme-1 (SLOX-1) (Glycine max, UniProt P08170); test: In vitro inhibition of soybean lipoxygenase; type: biochemical; conditions: for IC50: pH 9.0, read-out: LOX Inh. IC50; for LOX Inh. IC50: pH 9.0
T2 construct: purchased Merck and Sigma-Aldrich
T2 sequence (P08170 1-839): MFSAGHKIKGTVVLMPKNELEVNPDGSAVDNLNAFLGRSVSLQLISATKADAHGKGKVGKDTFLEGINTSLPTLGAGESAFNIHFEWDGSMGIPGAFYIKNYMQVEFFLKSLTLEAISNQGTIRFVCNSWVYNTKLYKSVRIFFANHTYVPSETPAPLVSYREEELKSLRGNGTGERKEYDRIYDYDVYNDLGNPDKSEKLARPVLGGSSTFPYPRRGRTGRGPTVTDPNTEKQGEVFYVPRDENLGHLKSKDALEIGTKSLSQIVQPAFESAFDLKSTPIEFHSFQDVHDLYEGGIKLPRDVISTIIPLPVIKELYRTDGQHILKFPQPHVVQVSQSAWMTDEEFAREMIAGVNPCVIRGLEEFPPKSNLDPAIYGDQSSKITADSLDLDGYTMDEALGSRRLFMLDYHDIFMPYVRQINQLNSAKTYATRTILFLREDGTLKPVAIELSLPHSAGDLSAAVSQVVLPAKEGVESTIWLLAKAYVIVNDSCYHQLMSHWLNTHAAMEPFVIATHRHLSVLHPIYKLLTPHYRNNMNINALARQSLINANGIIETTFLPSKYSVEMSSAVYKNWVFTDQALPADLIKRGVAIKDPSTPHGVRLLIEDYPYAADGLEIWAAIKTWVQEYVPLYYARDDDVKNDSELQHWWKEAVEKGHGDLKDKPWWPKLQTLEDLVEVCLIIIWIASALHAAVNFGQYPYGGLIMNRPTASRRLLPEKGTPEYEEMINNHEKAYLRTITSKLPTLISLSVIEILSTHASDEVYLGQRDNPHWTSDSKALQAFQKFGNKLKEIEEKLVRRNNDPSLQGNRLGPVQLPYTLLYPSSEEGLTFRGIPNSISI
Method: In vitro anti-LOX activities were evaluated using soybean lipoxygenase isoenzyme-1 (SLOX-1), a commonly used model for mammalian LOXs.
An in vitro study was conducted following a previously reported method. The tested compounds were dissolved in DMSO (100 µM) and incubated at room temperature with 0.1 mL of sodium linoleate as the substrate and 0.2 mL of soybean lipoxygenase solution in Tris-HCl buffer (pH 9.0).

[3] = In vitro inhibition of linoleic acid lipid peroxidation (AAPH); conditions: 100 μM; anti-lipid peroxidation
Excerpt: In the present study, the aim was to evaluate the anti-lipid peroxidation activities of the synthesized compounds 5a–i, 6a–i, 9a–i, and 11 and compare their efficacy to that of Trolox, a well-known antioxidant. Using the water-soluble compound 2,2′-azobis(2-amidinopropane) hydrochloride (AAPH), peroxyl radicals are generated through spontaneous thermal decomposition in vitro. This experimental setup imitated the lipid peroxidation processes occurring in cells due to radical activity allowing the investigation of the effectiveness of the tested compounds under conditions resembling cellular oxidative stress.
An in vitro assay was performed following previously established protocols. The compound 2,2′-Azobis(2-methylpropionamidine) dihydrochloride (AAPH) was used as a controlled source of thermally generated alkylperoxy free radicals. The formation of conjugated diene hydroperoxides through the oxidation of sodium linoleate in an aqueous dispersion at 37 °C was measured by monitoring absorbance at 234 nm. The results were compared with the reference compound, Trolox (93%) (Table 6).

bovine serum albumin = target: T3, bovine serum albumin (Bos taurus, UniProt P02769); test: In vitro inhibition of albumin denaturation; conditions: heat denaturation, 60 °C 10 min
T3 construct: bovine serum albumin solution (fraction V); purchased Merck and Sigma-Aldrich; host or cells: bovine serum (fraction V)
T3 sequence (P02769 25-607): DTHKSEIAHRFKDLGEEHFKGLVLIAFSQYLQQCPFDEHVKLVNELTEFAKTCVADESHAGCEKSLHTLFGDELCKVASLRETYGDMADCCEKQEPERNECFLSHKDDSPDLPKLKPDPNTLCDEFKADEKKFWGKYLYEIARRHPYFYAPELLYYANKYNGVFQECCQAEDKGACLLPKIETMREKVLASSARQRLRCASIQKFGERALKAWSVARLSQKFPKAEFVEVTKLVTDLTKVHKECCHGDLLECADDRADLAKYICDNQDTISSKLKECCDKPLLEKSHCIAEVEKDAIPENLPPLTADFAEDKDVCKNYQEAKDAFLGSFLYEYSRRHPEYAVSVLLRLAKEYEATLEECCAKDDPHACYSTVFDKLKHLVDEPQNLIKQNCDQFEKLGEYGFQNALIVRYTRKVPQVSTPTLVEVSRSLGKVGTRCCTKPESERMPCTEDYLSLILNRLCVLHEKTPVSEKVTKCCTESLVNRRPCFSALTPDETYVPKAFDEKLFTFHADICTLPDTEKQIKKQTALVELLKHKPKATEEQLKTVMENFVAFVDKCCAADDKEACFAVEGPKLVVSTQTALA
Method: The ability of a compound to inhibit the thermal denaturation of albumin is considered an indicator of anti-inflammatory activity. Heat exposure simulates conditions of cellular stress or inflammation, during which protein and tissue damage occur. Certain substances can protect proteins from denaturation upon heating by stabilizing their structure and preventing aggregation and precipitation.
Inhibition of albumin denaturation was measured following the reported method. In a test tube, 1 mL of bovine serum albumin solution (fraction V, 1% w/v in phosphate buffer, pH 7.4) and 100 μL of the test compound solution were added sequentially. The mixture was incubated at 37 °C for 15 min, followed by heating at 60 °C for 10 min. After cooling to room temperature, the absorbance was measured at 660 nm. DMSO was used as the blank, and the results were compared to acetylsalicylic acid, which served as the reference compound (Table 6).

MCF-7 cells = test: MTT viability assay; type: cell-based; conditions: Homo sapiens, MCF7, 48 h
Method: (§1) HeLa, MCF-7, U251, U87, MDA-MB-435, and MDA-MB-231 cancer cell lines were maintained in incubators at 37 °C with 5% CO2 in DMEM medium supplemented with 10% (v/v) fetal bovine serum (FBS) and antibiotics/antimycotics. All cell lines used in this study originate from the Laboratory of Biochemistry, Department of Chemistry, Aristotle University of Thessaloniki. They are low-passage, mycoplasma-free cancer cell lines that have been extensively used over the past 25 years in numerous studies across various fields of cancer research, including drug cytotoxicity testing.
(§2) All cell lines tested were seeded in 96-well plates at a concentration of 6 × 10^3 cells per well, except HeLa, which were seeded at 3 × 10^3 cells per well. The day after, cells were exposed to increasing concentrations of the compounds for 48 h. Cell viability was determined using the 3-(4,5-dimethylthiazol-2-yl)-2,5-diphenyltetrazolium bromide (MTT) assay, a colorimetric assessment of cellular metabolic activity as described previously. Absorbance values from treated samples were normalized to those of untreated controls, which were assigned to a 100% viability value.

HeLa cells = test: MTT viability assay; type: cell-based; conditions: Homo sapiens
Method: as §1, §2

| COX-2 Inh. IC50 (ovine COX-2) | IC50 [2] [µM] | Albumin (inhibition of albumin denaturation) (bovine serum albumin) | LOX Inh. IC50 [2] | EC50 (MCF-7 cells) [µM] | EC50 (HeLa cells; 48 h) [µM] | IC50 (HeLa cells; 48 h of exposure, read-out: IC50 in HeLa cells (positive control)) [µM] | SMILES | %NO2^− Release mol/mol at 100 μΜ [1] | AAPH Inh. at 100 μΜ [3] |
| --- | --- | --- | --- | --- | --- | --- | --- | --- | --- |
| no | 61 | no |  |  |  |  | C/C(=N\O)c1ccc(NC(=O)COC(=O)/C=C/c2cc3ccccc3o2)cc1 [Compound 6f, 2-((4-((E)-1-(Hydroxyimino)ethyl)phenyl)amino)-2-oxoethyl (E)-3-(benzofuran-2-yl)acrylate] | 0.3% | no |
| no | 3.5 | no |  |  |  |  | O=C(C=Cc1ccccc1)OCc1c(-c2ccccc2)no[n+]1[O-] [Compound 9a, 3-((Cinnamoyloxy)methyl)-4-phenyl-1,2,5-oxadiazole 2-oxide] | 20% | 91.6% |
| no |  | no | no |  |  |  | O=C(C=Cc1cccc2ccccc12)OCc1c(-c2ccccc2)no[n+]1[O-] [Compound 9b, 3-(((3-(Naphthalen-1-yl)acryloyl)oxy)methyl)-4-phenyl-1,2,5-oxadiazole 2-oxide] | 1.2% | 84% |
| no |  | no | no |  |  |  | O=C(/C=C/c1cccs1)OCc1c(-c2ccccc2)no[n+]1[O-] [Compound 9c, (E)-4-Phenyl-3-(((3-(thiophen-2-yl)acryloyl)oxy)methyl)-1,2,5-oxadiazole 2-oxide] | 1.2% | 73.3% |
| no | 63 | no |  |  |  |  | O=C(/C=C/c1ccco1)OCc1c(-c2ccccc2)no[n+]1[O-] [Compound 9d, (E)-3-(((3-(Furan-2-yl)acryloyl)oxy)methyl)-4-phenyl-1,2,5-oxadiazole 2-oxide] | no | 78% |
| no | 70 | no |  |  |  |  | O=C(/C=C/c1cc2ccccc2o1)OCc1c(-c2ccccc2)no[n+]1[O-] [Compound 9f, (E)-3-(((3-(Benzofuran-2-yl)acryloyl)oxy)methyl)-4-phenyl-1,2,5-oxadiazole 2-oxide] | no | 97% |
| no | 55.5 | no |  | > 100 | 46.6 |  | O=C(OCc1c(-c2ccccc2)no[n+]1[O-])/C(=C/c1ccccc1)c1ccccc1 [Compound 9g, (E)-3-(((2,3-Diphenylacryloyl)oxy)methyl)-4-phenyl-1,2,5-oxadiazole 2-oxide] | 3% | 90% |
| no | 10 | no |  |  |  |  | O=C(OCc1c(-c2ccccc2)no[n+]1[O-])/C(=C/c1cccc2ccccc12)c1ccccc1 [Compound 9h, (E)-3-(((3-(Naphthalen-1-yl)-2-phenylacryloyl)oxy)methyl)-4-phenyl-1,2,5-oxadiazole 2-oxide] | no | 94.5% |
| no |  | no | complete loss of activity and no |  |  |  | O=C(C=Cc1ccccc1)OCCOc1no[n+]([O-])c1S(=O)(=O)c1ccccc1 [Compound 11, 4-(2-(Cinnamoyloxy)ethoxy)-3-(phenylsulfonyl)-1,2,5-oxadiazole 2-oxide] | 11% | 90% |
|  |  |  |  |  |  | ~0.5 | COc1cccc2c1C(=O)c1c(O)c3c(c(O)c1C2=O)C[C@@](O)(C(=O)CO)C[C@@H]3O[C@H]1C[C@H](N)[C@H](O)[C@H](C)O1 [doxorubicin, reference compound] |  |  |
